Assay results as given in ChEMBL document CHEMBL1151135, “The Chemistry of Taxol, a Clinically Useful Anticancer Agent” (1990).
In brackets after ≈: the same amount, converted by molar mass.

Species: Bos taurus
Experiment: Inhibition of bovine brain tubulin assembly assessed as drug level causing decrease in tubulin depolymerization rate
Details: not given
Work on `CC(=O)O[C@H]1C(=O)[C@]2(C)[C@@H](OC(=O)c3ccccc3)C[C@H]3OC[C@@]3(OC(C)=O)[C@H]2[C@H](OC(=O)c2ccccc2)[C@]2(O)C[C@H](OC(=O)[C@H](O)[C@@H](NC(=O)c3ccccc3)c3ccccc3)C(C)=C1C2(C)C` yielded an ID50 of 0.17 µM. Molecule `CC(=O)O[C@H]1C(=O)[C@]2(C)[C@@H](OC(=O)c3ccc(C4(C(F)(F)F)N=N4)cc3)C[C@H]3OC[C@@]3(OC(C)=O)[C@H]2[C@H](OC(=O)c2ccccc2)[C@]2(O)C[C@H](OC(=O)[C@H](O)[C@@H](NC(=O)c3ccccc3)c3ccccc3)C(C)=C1C2(C)C` has an ID50 of 0.34 µM. With `CC(=O)O[C@H]1C(=O)[C@@]2(C)[C@H]([C@H](OC(=O)c3ccccc3)[C@]3(O)C[C@H](OC(=O)[C@H](O)[C@@H](NC(=O)c4ccccc4)c4ccccc4)C(C)=C1C3(C)C)[C@]1(OC(C)=O)CO[C@@H]1C[C@@H]2O` the ID50 was 0.1 µM.

The molecules below were run on J774.2 (assay: Cytotoxicity against mouse J774.2 cells). Details: not given.
Format: functional
`CC(=O)O[C@H]1C(=O)[C@]2(C)[C@@H](OC(C)=O)C[C@H]3OC[C@@]3(OC(C)=O)[C@H]2[C@H](OC(=O)c2ccccc2)[C@]2(O)C[C@H](OC(=O)[C@H](O)[C@@H](NC(=O)c3ccccc3)c3ccccc3)C(C)=C1C2(C)C` [PACLITAXEL C7 ACETYLCARBOXYLIC ACID ESTER] gave an ED50 of 9 ×10⁻⁸ M. For `CC(=O)O[C@H]1C(=O)[C@@]2(C)[C@H]([C@H](OC(=O)c3ccccc3)[C@]3(O)C[C@H](OC(=O)[C@H](OC(C)=O)[C@@H](NC(=O)c4ccccc4)c4ccccc4)C(C)=C1C3(C)C)[C@]1(OC(C)=O)CO[C@@H]1C[C@@H]2O`, the ED50 was 3 ×10⁻⁷ M.

What follows are molecules tested on KB (assay: Cytotoxicity against human KB cells). Details: not given.
Format: functional
Work on `CC(=O)O[C@H]1C(=O)[C@]2(C)[C@H](O)C[C@H]3OC[C@@]3(OC(C)=O)[C@H]2[C@H](OC(=O)c2ccccc2)[C@]2(O)C[C@H](OC(=O)[C@H](O)[C@@H](NC(=O)c3ccccc3)c3ccccc3)C(C)=C1C2(C)C` yielded an ED50 of 3 ×10⁻⁵ ug/ml.

Same assay, conditions: Homo sapiens, KB; read-out: ED50 (the source's name)
Molecule `CC(=O)O[C@H]1C(=O)[C@]2(C)[C@@H](OC(C)=O)C[C@H]3OC[C@@]3(OC(C)=O)[C@H]2[C@H](OC(=O)c2ccccc2)[C@]2(O)C[C@H](OC(=O)[C@H](OC(C)=O)[C@@H](NC(=O)c3ccccc3)c3ccccc3)C(C)=C1C2(C)C` has an EC50 of 0.03 µg/mL (≈ 0.032 µM). For `CC(=O)O[C@@]12CO[C@@H]1C[C@H](O)[C@@]1(C)C(=O)C(=O)C3=C(C)[C@@H](OC(=O)[C@H](O)[C@@H](NC(=O)c4ccccc4)c4ccccc4)C[C@@](O)([C@@H](OC(=O)c4ccccc4)[C@H]21)C3(C)C`, the EC50 was 0.02 µg/mL (≈ 0.0247 µM). With `CC(=O)O[C@H]1C[C@H]2OC[C@@]2(OC(C)=O)[C@H]2[C@H](OC(=O)c3ccccc3)[C@]3(O)C[C@H](OC(=O)[C@H](OC(C)=O)[C@@H](NC(=O)c4ccccc4)c4ccccc4)C(C)=C([C@@H](O)C(=O)[C@]12C)C3(C)C` the EC50 was < 0.01 µg/mL. Molecule `CC(=O)O[C@@]12CO[C@@H]1C[C@H](O)[C@@]1(C)C(=O)[C@H](O)C3=C(C)[C@@H](O)C[C@@](O)([C@@H](OC(=O)c4ccccc4)[C@H]21)C3(C)C` has an EC50 of 1 µg/mL (≈ 1.84 µM). `CC(=O)O[C@H]1C(=O)[C@]2(C)C(=O)C[C@H]3OC[C@@]3(OC(C)=O)[C@H]2[C@H](OC(=O)c2ccccc2)[C@]2(O)C[C@H](OC(=O)[C@H](O)[C@@H](NC(=O)c3ccccc3)c3ccccc3)C(C)=C1C2(C)C` was tested, and the EC50 was 0.5 µg/mL (≈ 0.587 µM). With `CC(=O)O[C@H]1C(=O)[C@@H](C)C([C@@]2(OC(C)=O)CCC(=O)OC2)[C@H](OC(=O)c2ccccc2)[C@]2(O)C[C@H](OC(=O)[C@H](O)[C@@H](NC(=O)c3ccccc3)c3ccccc3)C(C)=C1C2(C)C` (stereo partly specified) the EC50 was 2 µg/mL (≈ 2.34 µM). `C=C(C)[C@@]12C[C@H](OC(=O)[C@H](OC(C)=O)[C@@H](NC(=O)c3ccccc3)c3ccccc3)C(C)=C1[C@@H](OC(C)=O)C(=O)[C@]1(C)[C@@H](OC(C)=O)C[C@H](OC(C)=O)[C@@](O)(COC(C)=O)[C@H]1[C@@H]2OC(=O)c1ccccc1` was tested, and the EC50 was 2.5 µg/mL (≈ 2.55 µM). Work on `CC(=O)OC[C@@]1(O)[C@H]2[C@H](OC(=O)c3ccccc3)[C@]3(O)C[C@H](OC(=O)[C@H](O)[C@@H](NC(=O)c4ccccc4)c4ccccc4)C(C)=C([C@@H](OC(C)=O)C(=O)[C@]2(C)[C@@H](O)C[C@@H]1O)C3(C)C` yielded an EC50 of 0.2 µg/mL (≈ 0.229 µM). In the case of `CC(=O)O[C@H]1C(=O)[C@]2(C)C(=O)C[C@H]3OC[C@@]3(OC(C)=O)[C@H]2[C@H](OC(=O)c2ccccc2)[C@]2(O)C[C@H](OC(=O)C(=O)[C@@H](NC(=O)c3ccccc3)c3ccccc3)C(C)=C1C2(C)C`, the EC50 is reported as 12 µg/mL (≈ 14.1 µM). For `C=C1[C@@H](O)C[C@@H](OC(C)=O)[C@@]2(C)[C@@H](OC(C)=O)[C@H](OC(C)=O)C3=C(C)[C@@H](OC(C)=O)C[C@@](O)([C@@H](OC(C)=O)[C@H]12)C3(C)C` [DECINNAMOYLTAXININE], the EC50 was 28 µg/mL (≈ 47.1 µM).
